What was measured:
Format in all cases: cell-based, human
HCC1395 cells = assay: Proliferation of ERα-positive/ERAP1-negative HCC1395 cells; conditions: 10 nM E2 96 hours
Procedure: FIG. 21 is a diagram illustrating that […] was translocated into the nucleus by E2 stimulation in ERAP1-negative breast cancer cell lines, HCC1395 cells. […] Then, immediately, the cells were stimulated with 1 μM E2 for 24 hours. The cells were fractionated into cytoplasm and nuclear fractions by specific gravity centrifugation. Then, each fraction was subjected to immunoblotting analysis using an anti-PHB2 antibody. Lamin and Tubulin are markers for […]. […] HCC1395 cells were treated with 5 μM ERAP1-peptide. Then, immediately, the cells were stimulated with 1 μM E2 for 24 hours. Then, the nuclear fraction was immunoprecipitated with anti-ERα antibody. Furthermore, with respect to the obtained sample, the immunoprecipitate was subjected to immunoblotting analysis with the antibodies shown in the figure. […] Then, immediately the cells were stimulated with 10 nM E2 for 96 hours.
The proliferation assay of HCC1395 cells was evaluated using Cell-Counting Kit-8 (CCK-8, Dojindo, Kumamoto, Japan). First, HCC1395 cells were seeded in 2×10^4/well in RPMI culture medium containing 10% FBS and 1% antibiotic/antimycotic solution and not containing phenol red on a 48-well plate, and stood in a CO2 incubator. […] Then, 100 μl from each well was moved to a 96-well plate, and the absorbance at 450 nm was measured with a microplate reader.

ERα = ERα down-regulation and polyubiquitination in KPL-3C cells; conditions: in the presence of MG132
Procedure: FIG. 5 is a diagram illustrating the results of immunoblotting analysis by which the effects of the ERAP1-peptide in the down-regulation by polyubiquitination of ERα and proteasome decomposition were evaluated. The upper panel and the lower panel show the results obtained by the procedures described below. Namely, KPL-3C cells were treated with the ERAP1-peptide and/or 10 nM E2 for 1 hour. Then, the protein level and the mRNA level of ERα were examined by Western blotting and semi-quantitative RT-PCR. The results thereof are shown in the upper panel. β-actin is a loading control. Then KPL-3C cells were treated with the ERAP1-peptide and/or E2 in the presence of 1 μM MG-132 for 1 hour. Then, the cell lysate was immunoprecipitated with anti-ERα antibody. The results thereof are shown in the lower panel.

[1] = system: ERα interaction with IGF-1Rβ and Shc; assay: E2-independent non-genomic activation route via IGF-1Rβ, MCF-7; conditions: 10 μM, 24 hours, cytoplasm fraction
Procedure: FIG. 15 is a diagram illustrating the effects of the ERAP1-peptide on E2-independent cell functions. […] MCF-7 cells were treated with the ERAP1-peptide in each concentration (1, 3, 5 and 10 μM) or 10 nM tamoxifen as a positive control for 24 hours. […] MCF-7 cells were stimulated with 10 μM ERAP1-peptide treatment only, 10 nM E2 treatment only, or 10 μM ERAP1-peptide treatment and immediately 10 nM E2 for 24 hours, and the cytoplasm fraction was isolated from each of the treated cells. Then, the cytoplasm fraction was immunoprecipitated with anti-ERα antibody. Furthermore, with respect to the obtained sample, Western blotting analysis was performed using the antibodies shown in the figure.
MCF-7 cells were subjected to a treatment of 10 μM ERAP1-peptide alone, stimulation with 10 nM E2 alone, and co-stimulation with the ERAP1 peptide and E2, respectively, and after 24 hours, the cytoplasm fraction was isolated from the cells of each treatment. The cytoplasm fraction was precleaned using normal IgG and rec-Protein G Sepharose 4B (Zymed, San Francisco, Calif., USA) at 4° C. for 3 hours, and centrifuged, and then the supernatant was incubated in the presence of anti-ERα antibody at 4° C. for 6 hours. Then, the supernatant was added with rec-Protein G Sepharose 4B and incubated at 4° C. for 1 hour whereby to precipitate an antigen-antibody complex. […]

[2] = system: generation of ROS in MCF-7 cells; assay: ROS production in the mitochondria, DHR123 flow cytometry
Procedure: FIG. 41-2 is a diagram illustrating that ROS production in the mitochondria by E2 stimulation is induced through ERAP1. […] MCF-7 cells, and MCF-7 cells suppressed for expression of ERAP1, and HCC1395 cells were treated with 10 μM DHR123 for 15 minutes. The cells were washed, and then stimulated with 10 μM ERAP1-peptide and 10 nM E2 for 24 hours, and analyzed by flow cytometry. Cells treated with 1 mM H2O2 for 24 hours were used as a positive control. The data are representative examples of two independent experiments.

[3] = system: pS2, cyclin D1, c-Myc, SP-1, E2F1, PgR; assay: Quantitative RT-PCR of ERα target genes, MCF-7
HDAC1 = assay: Deacetylation (HDAC) assay of anti-PHB2 immunoprecipitate; conditions: MCF-7, 24 hours
Procedure: FIG. 4-4 is a diagram illustrating that the ERAP1-peptide promotes nuclear translocation of PHB2. […] MCF-7 cells were treated with the ERAP1-peptide and/or 10 nM E2 for 24 hours. Then, the nuclear fraction was immunoprecipitated with anti-ERα antibody or an anti-PHB2 antibody. […] MCF-7 cells were treated with the ERAP1-peptide and/or E2 for 24 hours. Then, the cell lysate was immunoprecipitated with anti-PHB2 antibody. Subsequently, the HDAC activity in the immunoprecipitate was measured with a commercially available kit. The nuclear extract from the HeLa cells and PBS were used as a positive control (P) and as negative control (N), respectively.
HDAC assay was performed using HDAC Fluorescent Activity Assay/Drug Discovery Kit (Enzo Life Sciences, Plymouth Meeting, Pa., USA) in accordance with the instruction of the manufacturer. MCF-7 cells were treated with E2 and/or the ERAP1 peptide(s) for 24 hours in a 6-well plate. Then, the cell extract was immunoprecipitated with anti-PHB2 antibody. Furthermore, the immunoprecipitated cell extract was incubated for 30 minutes in the presence of a substrate at 30° C. After the incubation, the reaction was stopped, and the fluorescence was analyzed with a microplate fluorometer (Infinite M200, Tecan, Mannedorf, Switzerland).

CSCC[C@H](NC(=O)[C@H](CCC(N)=O)NC(=O)[C@H](CCCNC(=N)N)NC(=O)[C@H](CCCNC(=N)N)NC(=O)[C@H](CCCNC(=N)N)NC(=O)[C@H](CCCNC(=N)N)NC(=O)[C@H](CCCNC(=N)N)NC(=O)[C@H](CCCNC(=N)N)NC(=O)[C@H](CCCNC(=N)N)NC(=O)[C@H](CCCNC(=N)N)NC(=O)[C@H](CCCNC(=N)N)NC(=O)[C@H](CCCNC(=N)N)NC(=O)[C@@H](N)CCCNC(=N)N)C(=O)N[C@@H](CC(C)C)C(=O)N[C@@H](CO)C(=O)N[C@@H](CC(=O)O)C(=O)N[C@@H](CC(C)C)C(=O)N[C@H](C(=O)N[C@@H](CC(C)C)C(=O)N[C@@H](CCC(N)=O)C(=O)N[C@@H](CC(C)C)C(=O)N[C@@H](CCCNC(=N)N)C(=O)N[C@@H](CCC(N)=O)C(=O)N[C@@H](CCCNC(=N)N)C(=O)O)[C@@H](C)O [ERAP1-peptide]
cell proliferation (HCC1395 cells): not recognized
protein decrease and polyubiquitination of ERα (ERα): suppression for protein decrease of ERα was similarly recognized with inhibition of polyubiquitination
interaction of IGF-1Rβ and Shc with ERα, absence of E2 [1]: each interaction of IGF-1Rβ and Shc, and ERα was inhibited
generation of ROS ([2]; MCF-7 in which expression of ERAP1 was suppressed): had no influence on the generation of ROS
generation of ROS ([2]; MCF-7 transfected with control siRNA, 10 μM, E2 24 hours): generation of ROS was remarkably suppressed
expression of ERα target genes ([3]; after 24 hours): expression of any of the genes was remarkably suppressed
time at which significant expression suppression effect was first recognized ([3]; after addition of the peptide): 6 h
activity of HDAC1 (HDAC1): accelerated dose-dependently

— patent US9725490B2, “ERAP1-derived peptide and use thereof” (TOKUSHIMA UNIVERSITY, priority 2011, dated 2017)
